The results in this text go back to patent publication US7932284B2, “Indole sulfonamide modulators of progesterone receptors” (Eli Lilly and Company, priority 2006, dated 2011).

A word on the pKi: it is the negative decadic logarithm of the Ki, by convention in mol/L. Low values mean a large Ki, high ones a small Ki.

Assay [1] concerns the target T1, human MR (mineralocorticoid receptor) (Homo sapiens, UniProt P08235).
T1 construct: expressed in transfected cells; host or cells: HEK293
T1 sequence (P08235 1-984): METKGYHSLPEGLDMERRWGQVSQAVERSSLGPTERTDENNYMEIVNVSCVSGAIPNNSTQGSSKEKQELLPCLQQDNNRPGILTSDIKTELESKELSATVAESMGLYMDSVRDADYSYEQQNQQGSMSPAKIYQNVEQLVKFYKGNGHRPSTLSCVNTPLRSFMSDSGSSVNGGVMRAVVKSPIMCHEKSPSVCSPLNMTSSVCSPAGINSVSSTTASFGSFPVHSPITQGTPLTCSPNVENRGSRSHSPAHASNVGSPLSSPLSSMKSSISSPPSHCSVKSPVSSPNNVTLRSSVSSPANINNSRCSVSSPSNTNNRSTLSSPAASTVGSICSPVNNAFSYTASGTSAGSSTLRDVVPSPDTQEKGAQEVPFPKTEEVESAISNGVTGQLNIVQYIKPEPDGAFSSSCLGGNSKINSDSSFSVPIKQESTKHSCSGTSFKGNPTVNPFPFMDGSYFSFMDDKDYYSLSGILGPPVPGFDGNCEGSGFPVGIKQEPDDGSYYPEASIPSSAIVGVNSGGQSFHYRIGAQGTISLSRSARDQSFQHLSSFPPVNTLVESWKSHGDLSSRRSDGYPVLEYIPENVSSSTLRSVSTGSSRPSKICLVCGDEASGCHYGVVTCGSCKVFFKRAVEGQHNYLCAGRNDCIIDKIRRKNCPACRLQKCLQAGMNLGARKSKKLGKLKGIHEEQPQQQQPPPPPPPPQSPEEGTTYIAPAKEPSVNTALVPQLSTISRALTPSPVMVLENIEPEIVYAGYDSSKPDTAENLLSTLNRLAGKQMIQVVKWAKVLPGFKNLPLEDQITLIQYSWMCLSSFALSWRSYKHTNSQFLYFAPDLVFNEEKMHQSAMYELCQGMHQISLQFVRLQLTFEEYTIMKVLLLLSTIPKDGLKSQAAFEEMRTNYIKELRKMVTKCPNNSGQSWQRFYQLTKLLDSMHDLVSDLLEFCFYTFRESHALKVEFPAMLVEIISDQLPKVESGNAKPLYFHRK
Kind of assay: MR competition binding assay (HEK293 cell lysate). The conditions noted are these: 0.25 nM 3H-aldosterone, 293-MR lysate. As for the experimental part:
(§1) Cell lysates from HEK293 cells overexpressing human GR (glucocorticoid receptor), AR (androgen receptor), MR (mineralocorticoid receptor) or PR (progesterone receptor) are used for competition binding assays to determine Ki values for compounds of interest. Briefly, competition binding assays are run in a buffer containing 20 mM HEPES, pH 7.6, 0.2 mM EDTA, 75 mM NaCl, 1.5 mM MgCl2, 20% glycerol, 20 mM sodium molybdate, 0.2 mM DTT, 20 ug/ml aprotinin, and 20 ug/ml leupeptin, using either 0.3 nM ^3H-dexamethasone for GR binding, 0.36 nM ^3H-methyltrienolone for AR binding, 0.25 nM ^3H-aldosterone for MR binding, or 0.29 nM ^3H-methyltrienolone for PR binding, and either 20 ug 293-GR lysate, 22 ug 293-AR lysate, 20 ug 293-MR lysate or 40 ug 293-PR lysate per well. Competing compounds are added at various concentrations in half-log increments. Non-specific binding is determined in the presence of 500 nM dexamethasone for GR binding, 500 nM aldosterone for MR binding, or 500 nM methyltrienolone for AR and PR binding. The binding reaction (140 μl) is incubated overnight at 4° C., then 70 μl of cold charcoal-dextran buffer (containing per 50 ml of assay buffer, 0.75 g of charcoal and 0.25 g of dextran) is added to each reaction. Plates are mixed 8 minutes on an orbital shaker at 4° C. Plates are then centrifuged at 3,000 rpm at 4° C. for 10 minutes. An aliquot of 120 μl of the mixture is transferred to another 96-well plate and 175 μl of Wallac Optiphase “Hisafe 3” scintillation fluid is added to each well. Plates are sealed and shaken vigorously on an orbital shaker. After an incubation of 2 hrs, plates are read in a Wallac Microbeta counter. […] The Kd for ^3H-dexamethasone for GR binding, ^3H-methyltrienolone for AR binding, ^3H-aldosterone for MR binding, or ^3H-methyltrienolone for PR binding, is determined by saturation binding. The IC50 values for compounds are converted to Ki using Cheng-Prusoff equation and the Kd determined by saturation binding assay.

Assay [2] concerns the target T2, human PR (progesterone receptor) (Homo sapiens, UniProt P06401).
T2 construct: expressed in transfected cells; host or cells: HEK293
T2 sequence (P06401 1-933): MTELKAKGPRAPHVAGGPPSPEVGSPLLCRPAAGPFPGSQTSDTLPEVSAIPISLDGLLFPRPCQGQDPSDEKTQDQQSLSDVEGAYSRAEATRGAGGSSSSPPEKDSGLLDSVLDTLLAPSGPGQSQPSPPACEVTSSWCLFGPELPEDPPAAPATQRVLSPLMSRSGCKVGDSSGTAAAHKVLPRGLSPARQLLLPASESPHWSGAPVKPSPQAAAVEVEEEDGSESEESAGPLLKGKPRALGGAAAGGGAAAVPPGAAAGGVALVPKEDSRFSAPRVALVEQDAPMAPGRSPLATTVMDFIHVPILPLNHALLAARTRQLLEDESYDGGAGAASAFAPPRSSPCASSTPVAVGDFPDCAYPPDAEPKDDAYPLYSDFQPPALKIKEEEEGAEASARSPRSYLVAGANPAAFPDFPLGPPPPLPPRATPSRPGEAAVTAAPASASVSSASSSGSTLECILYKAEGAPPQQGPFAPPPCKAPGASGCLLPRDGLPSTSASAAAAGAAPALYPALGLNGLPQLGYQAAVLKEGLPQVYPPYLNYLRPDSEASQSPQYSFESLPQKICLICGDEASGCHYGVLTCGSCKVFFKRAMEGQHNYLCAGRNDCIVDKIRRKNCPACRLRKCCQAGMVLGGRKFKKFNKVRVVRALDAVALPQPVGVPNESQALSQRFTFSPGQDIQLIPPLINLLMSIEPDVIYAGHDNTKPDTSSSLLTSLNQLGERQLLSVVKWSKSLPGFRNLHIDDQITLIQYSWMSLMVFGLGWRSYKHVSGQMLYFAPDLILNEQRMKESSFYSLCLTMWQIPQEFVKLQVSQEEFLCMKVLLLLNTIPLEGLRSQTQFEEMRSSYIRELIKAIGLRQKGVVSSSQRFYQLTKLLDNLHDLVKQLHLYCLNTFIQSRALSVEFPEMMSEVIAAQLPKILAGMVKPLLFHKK
Kind of assay: PR competition binding assay (HEK293 cell lysate). The conditions noted are these: 0.29 nM 3H-methyltrienolone, 293-PR lysate. Here is the method: as §1
More preferably the compounds of the present invention have PR binding value K; of <10 nM.

Molecules are shown by their SMILES. pKi: −log10 of the molar value.

For `CC(C)n1cc(-c2ccc(C=NO)cc2)c2ccc(NS(C)(=O)=O)cc21` [Example 94, N-{3-[4-(Hydroxyimino-methyl)-phenyl]-1-isopropyl-1H-indol-6-yl}-methanesulfonamide], the pKi was 6.00 to 6.30 in assay [1] and more than 7.30 in assay [2].

For `CC(C)n1cc(-c2ccc3sccc3c2)c2ccc(NS(C)(=O)=O)cc21` [Example 95, N-(3-Benzo[b]thiophen-5-yl-1-isopropyl-1H-indol-6-yl)-methanesulfonamide], the pKi is 6.00 to 6.30 in assay [1] and more than 7.30 in assay [2].

Turning to `CC(C)n1cc(-c2ccc3oc(=O)ccc3c2)c2ccc(NS(C)(=O)=O)cc21` [Example 96, N-[1-Isopropyl-3-(2-oxo-2H-chromen-6-yl)-1H-indol-6-yl]-methanesulfonamide], the negative-log Ki (pKi) in assay [1] was less than 6.00; in assay [2] it was more than 7.30.

On to `CC(C)n1cc(-c2ccc3c(c2)COC3=O)c2ccc(NS(C)(=O)=O)cc21` [Example 97, N-[1-Isopropyl-3-(1-oxo-1,3-dihydro-isobenzofuran-5-yl)-1H-indol-6-yl]-methanesulfonamide], for which the pKi in assay [1] was less than 6.00; in assay [2], more than 7.30.

In the case of `CC(C)n1cc(-c2ccc(C#N)cc2)c2ccc(NS(=O)(=O)C(F)(F)F)cc21` [Example 98, N-[3-(4-Cyano-phenyl)-1-isopropyl-1H-indol-6-yl]-C,C,C-trifluoro-methanesulfonamide], the negative-log Ki (pKi) in assay [1] was less than 6.00; in assay [2], more than 7.30.

Regarding `CC(C)n1cc(-c2ccc(C#N)cc2)c2ccc(NS(=O)(=O)N3CCOCC3)cc21` [Example 100, Morpholine-4-sulfonic acid [3-(4-cyano-phenyl)-1-isopropyl-1H-indol-6-yl]-amide], the figures for the pKi in assay [1] and in assay [2] were less than 6.00 and 7.00 to 7.30, respectively.

With `CC(C)n1cc(-c2ccc3c(cnn3C)c2)c2ccc(NS(C)(=O)=O)cc21` [Example 107, N-[1-Isopropyl-3-(1-methyl-1H-indazol-5-yl)-1H-indol-6-yl]-methanesulfonamide], the negative-log Ki (pKi) was less than 6.00 in assay [1] and 7.00 to 7.30 in assay [2].
